Test results: ChEMBL document CHEMBL1148392 (J Med Chem, 2004)

Assays:
Carbonic anhydrase 9 = Carbonic anhydrase 9 (Homo sapiens, UniProt Q16790)
Description: Inhibitory activity against human carbonic anhydrase IX was determined

Carbonic anhydrase 4 = biological target: T1, Carbonic anhydrase 4 (Bos taurus, UniProt Q95323)
T1 sequence (Q95323 whole entry): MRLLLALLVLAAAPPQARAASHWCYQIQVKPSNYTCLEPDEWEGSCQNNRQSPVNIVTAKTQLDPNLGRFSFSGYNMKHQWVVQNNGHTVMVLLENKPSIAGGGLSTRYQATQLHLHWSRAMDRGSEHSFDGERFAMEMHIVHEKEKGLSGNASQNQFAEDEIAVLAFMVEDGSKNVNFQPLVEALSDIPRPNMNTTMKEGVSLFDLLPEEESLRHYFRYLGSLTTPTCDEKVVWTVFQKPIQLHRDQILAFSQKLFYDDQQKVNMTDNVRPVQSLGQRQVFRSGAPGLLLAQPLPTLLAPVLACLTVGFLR
Description: Inhibitory activity against bovine carbonic anhydrase IV was determined

Oryctolagus cuniculus [1] = experiment: Variation of intraocular pressure in fifth day at a dose of 30 mg/kg by systemic administration in hypertensive rabbits; type: functional, Eye
Carbonic anhydrase 2 = Carbonic anhydrase 2 (Homo sapiens, UniProt P00918)
Description: Inhibitory activity against human carbonic anhydrase II was determined

Carbonic anhydrase 1 = Carbonic anhydrase 1 (Homo sapiens, UniProt P00915)
Chain of Carbonic anhydrase 1 (P00915 whole entry): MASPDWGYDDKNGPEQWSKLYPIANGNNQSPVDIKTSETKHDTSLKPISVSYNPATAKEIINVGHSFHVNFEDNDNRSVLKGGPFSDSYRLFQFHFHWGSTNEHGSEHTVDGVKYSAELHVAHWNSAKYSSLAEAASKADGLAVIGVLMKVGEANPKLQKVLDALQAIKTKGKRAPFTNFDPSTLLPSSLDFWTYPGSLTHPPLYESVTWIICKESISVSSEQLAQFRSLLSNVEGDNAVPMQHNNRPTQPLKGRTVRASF
Description: Inhibitory activity against human carbonic anhydrase I was determined

Oryctolagus cuniculus [2] = species on record: Oryctolagus cuniculus; conditions: dose 30 mg/kg
Description: Variation of intraocular pressure in sixth day at a dose of 30 mg/kg by systemic administration in hypertensive rabbits

Oryctolagus cuniculus [3] = species on record: Oryctolagus cuniculus; conditions: dose 30 mg/kg; remark: listed apart in the source
Description: Variation of intraocular pressure in third day at a dose of 30 mg/kg by systemic administration in hypertensive rabbits

Oryctolagus cuniculus [4] = species on record: Oryctolagus cuniculus; conditions: dose 30 mg/kg; remark: listed apart in the source
Description: Variation of intraocular pressure in day one at a dose of 30 mg/kg by systemic administration in hypertensive rabbits

Oryctolagus cuniculus [5] = species on record: Oryctolagus cuniculus; conditions: dose 30 mg/kg; remark: listed apart in the source
Description: Variation of intraocular pressure in fourth day at a dose of 30 mg/kg at a dose by systemic administration in hypertensive rabbits

Oryctolagus cuniculus [6] = species on record: Oryctolagus cuniculus; conditions: dose 30 mg/kg; remark: listed apart in the source
Description: Variation of intraocular pressure in second day at a dose of 30 mg/kg by systemic administration in hypertensive rabbits

Oryctolagus cuniculus [7] = species on record: Oryctolagus cuniculus; conditions: dose 30 mg/kg; remark: listed apart in the source
Description: Variation of intraocular pressure in seventh day at a dose of 30 mg/kg by systemic administration in hypertensive rabbits

SMILES	IC50 (Carbonic anhydrase 9) [µM]	IC50 (Carbonic anhydrase 4) [µM]	Delta IOP (Oryctolagus cuniculus [1]) [mmHg]	IC50 (Carbonic anhydrase 2) [µM]	IC50 (Carbonic anhydrase 1) [µM]	Delta IOP (Oryctolagus cuniculus [2]) [mmHg]	Delta IOP (Oryctolagus cuniculus [3]) [mmHg]	Delta IOP (Oryctolagus cuniculus [4]) [mmHg]	Delta IOP (Oryctolagus cuniculus [5]) [mmHg]	Delta IOP (Oryctolagus cuniculus [6]) [mmHg]	Delta IOP (Oryctolagus cuniculus [7]) [mmHg]
CS(=O)(=O)c1ccc(-n2cc(-c3ccc(F)cc3)c(C(F)(F)F)n2)cc1	> 100	> 100	0.16	> 100	> 100	0.34	0.22	0.14	0.25	0.31	0.16
Cc1ccc(-c2cc(C(F)(F)F)nn2-c2ccc(S(N)(=O)=O)cc2)cc1 [CELECOXIB]	0.016	–	–	–	–	–	–	–	–	–	–
COc1ccc(-n2nc(C(F)(F)F)cc2-c2ccc(Cl)cc2)cc1 [SC-560]	> 100	> 100	0.3	> 100	> 100	0.41	0.25	0.23	0.34	0.017	0.52
